From patent publication US20250186374A1 (priority 2022, published 2025)
Entries after “also recorded” stand apart in the source; their conditions may differ. Where two headings read alike, the source gives them in different places.

How the values were obtained:
SARS-CoV-2 [1] = experiment: microbe, parasite or virus in culture; format: cell-based
SARS-CoV-2 3CLpro [2] = target: T1, SARS-CoV-2 3CLpro (Severe acute respiratory syndrome coronavirus 2, UniProt P0DTD1); experiment: Enzyme kinetics, Lineweaver-Burk plots; format: biochemical
SARS-CoV-2 3CLpro [3] = target: T1, SARS-CoV-2 3CLpro; experiment: Inhibition of cleavage of TriPro substrate protein, SDS-PAGE; format: biochemical; conditions: 0.8 μM 3CLpro
SARS-CoV-2 3CLpro [4] = target: T1, SARS-CoV-2 3CLpro; experiment: biochemical; format: biochemical
SARS-CoV-2 [5] = experiment: Clinical examples 1-3, treatment of COVID-19 / SARS-CoV-2 positive subjects; format: in vivo; conditions: Example 3: intranasal spray 10 mg once a day for 5 days
Description: Example 1: The following example describes treatment strategies for COVID-19 involving oral administration of an antiviral composition.
A physician diagnoses a patient with COVID-19. The patient is experiencing mild symptoms. […] The patient is to take the tablet once a day for one week. The patient is highly responsive and their symptoms go away after 2 days.
Example 2: The following example describes treatment strategies for intravenous administration of an antiviral composition.
A diabetic patient is hospitalized with severe COVID-19. […] The medication is added to an IV solution and delivered intravenously, twice a day for three days. The patient is highly responsive and experiences a reduction in their symptoms during the initial treatment period.
A subject tests positive for SARS-CoV-2 but is asymptomatic. […] The subject sprays the inside of their nose once a day for 5 days. The subject remains asymptomatic.

SARS-CoV-2 3CLpro [6] = target: T1, SARS-CoV-2 3CLpro; conditions: at 50 μM concentration; cited from earlier work
SARS-CoV = conditions: cited from earlier work
SARS-CoV 3CLpro = SARS-CoV 3CLpro (Severe acute respiratory syndrome coronavirus, UniProt P0C6X7); conditions: cited from earlier work
[7] = Severe acute respiratory syndrome coronavirus 2, 48 h

| SMILES | EC50 (SARS-CoV-2 [1]; [7]) [µM] | CC50 at 48 h (in vitro) [µM] | also measured |
| --- | --- | --- | --- |
| O=C(Nc1cc(C(F)(F)F)cc(C(F)(F)F)c1)c1cccc([N+](=O)[O-])c1O [JMX0330, N-(3,5-Bis(trifluoromethyl)phenyl)-2-hydroxy-3-nitrobenzamide] | 0.498 | – | EC50 value (strong inhibition of SARS-CoV-2 virus) (SARS-CoV-2 [1]): sub-micromolar range; CC50 (A549 and Vero E6 cells; Table 1, cell line not given): 10.2 µM |
| CC1(Nc2ccc(NC(=O)c3cc(Cl)ccc3O)c(Cl)c2)CCCC1 [JMX0510-2] | – | – | EC50 (SARS-CoV-2 [1]): 4.88 µM; CC50 (A549 and Vero E6 cells): 11.5 µM |
| CC(C)C[C@H](NC(=O)c1cc(Cl)ccc1O)C(=O)Nc1ccc([N+](=O)[O-])cc1Cl [JMX0671] | 1.56 | 8.03 | – |
| CC(C)[C@H](NC(=O)c1cc(Cl)ccc1O)C(=O)Nc1ccc(C(F)(F)F)cc1Cl [JMX0672] | 1.92 | 8.34 | – |
| CCC(C)[C@H](NC(=O)c1cc(Cl)ccc1O)C(=O)Nc1ccc([N+](=O)[O-])cc1Cl (stereo partly shown) [JMX0673] | 1.74 | 5.2 | – |
| C[C@H](NC(=O)c1cc(Cl)ccc1O)C(=O)Nc1ccc([N+](=O)[O-])cc1Cl [JMX0674] | 9.75 | > 10 | – |
| CC(C)[C@H](NC(=O)c1cc(Cl)ccc1O)C(=O)Nc1cc(C(F)(F)F)cc(C(F)(F)F)c1 [JMX0679] | 2.51 | 7.14 | – |
| CC(C)[C@H](NC(=O)c1cc(Cl)ccc1O)C(=O)Nc1cc(F)cc(C(F)(F)F)c1 [JMX0680] | 4.57 | 10.1 | – |
| CC(C)[C@H](NC(=O)c1cc(Cl)ccc1O)C(=O)Nc1ccc(F)c(F)c1 [JMX0681] | 9.75 | > 10 | – |
| O=C(Nc1cc(F)cc(C(F)(F)F)c1)c1ccc(Cl)cc1O [JMX0887] | 0.92 | 4.18 | EC50 value (strong inhibition of SARS-CoV-2 virus) (SARS-CoV-2 [1]): sub-micromolar range |
| O=C(Nc1ccc([N+](=O)[O-])cc1)c1cc(Cl)ccc1O [JMX0895] | 0.665 | – | EC50 value (strong inhibition of SARS-CoV-2 virus) (SARS-CoV-2 [1]): sub-micromolar range |
| O=C(Nc1ccc([N+](=O)[O-])c(Cl)c1)c1cc(Cl)ccc1O [JMX0941] | 1.75 | – | EC50 (SARS-CoV-2 [1]; Severe acute respiratory syndrome coronavirus 2, Table 2 and text, SARS-CoV-2 viral replication, cell-based antiviral assay): 1.7 µM; Inhibition Type (SARS-CoV-2 3CLpro [2]; Michaelis-Menten kinetics): non-competitive inhibition mechanism; effect on Vmax of 3CLpro (SARS-CoV-2 3CLpro [2]; compared to the DMSO control, 5 μM or 10 μM inhibitor): reduced the Vmax values; inhibition of cleavage of the TriPro substrate protein (SARS-CoV-2 3CLpro [3]): inhibited the cleavage of the TriPro substrate protein in a dose dependent manner; also recorded: inhibit the digestion of protein substrates in a dose dependent manner; inhibitory activity in library screen (SARS-CoV-2 3CLpro [4]; compound concentration of 100 μM): prominent inhibitory activity; side effects (SARS-CoV-2 [5]): No side effects are reported; SARS-CoV-2 test on the 6th day (SARS-CoV-2 [5]; asymptomatic subject): negative for SARS-CoV-2 |
| O=C(Nc1ccc([N+](=O)[O-])cc1Cl)c1cc(Cl)ccc1O [Niclosamide, niclosamide] | – | – | inhibition of the SARS-CoV-2 3CLpro (SARS-CoV-2 3CLpro [6]): does not inhibit; IC50 (SARS-CoV-2 3CLpro [4]): > 50 µM; EC50 (SARS-CoV; Vero E6 cells, read-out: EC50, SARS-CoV replication): < 0.1 µM; concentration suppressing the cytopathic effect (CPE) of SARS-CoV (SARS-CoV; as low as): 1 µM; inhibitory activity against SARS-CoV 3CLpro (SARS-CoV 3CLpro): no obvious inhibitory activity |
